Laboratory results reported in US6211168A, “Methods for preparation and use of 1α,24 (S)-dihydroxy vitamin D2” (Bone Care International, Inc, priority 1995, dated 2001).

Tests used:
vitamin D receptor (VDR) = target: T1, vitamin D receptor (VDR) (Homo sapiens, UniProt P11473); experiment: vitamin D-dependent transcriptional activation: growth hormone production in transfected COS-1 cells; type: cell-based; settings: transfected COS-1 cells
T1 construct: RXR partner endogenous (monkey)
T1 sequence (P11473 1-427): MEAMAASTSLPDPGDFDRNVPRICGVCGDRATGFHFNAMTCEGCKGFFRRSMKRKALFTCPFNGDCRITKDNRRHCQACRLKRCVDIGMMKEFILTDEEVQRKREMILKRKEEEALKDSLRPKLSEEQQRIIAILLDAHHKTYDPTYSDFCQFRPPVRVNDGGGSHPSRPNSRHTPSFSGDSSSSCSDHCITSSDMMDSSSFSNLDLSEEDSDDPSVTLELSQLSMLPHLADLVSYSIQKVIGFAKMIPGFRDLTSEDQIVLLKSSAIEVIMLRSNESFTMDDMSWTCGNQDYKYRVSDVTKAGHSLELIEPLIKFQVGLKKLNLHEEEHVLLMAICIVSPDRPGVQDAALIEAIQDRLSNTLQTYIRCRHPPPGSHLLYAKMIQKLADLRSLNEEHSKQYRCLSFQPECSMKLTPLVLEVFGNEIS
Method: The biological activity in vitro of chemically synthesized 1α,24(S)-(OH)2 D2 and 1α,24(R)-(OH)2 D2 was measured using a vitamin D-dependent transcriptional activation model system in which a vitamin D receptor (VDR)-expressing plasmid pSG5-hVDR1/3and a plasmid p(CT4)^4 TKGH containing a Growth Hormone (GH)-gene, under the control of a vitamin D-responsive element (VDRE) were co-transfected into Green monkey kidney, COS-1 cells. DNA's for these two vectors were supplied by Dr. Mark Haussler, Department of Biochemistry, University of Arizona, Tucson, Ariz.
Tranfected cells were incubated with vitamin D metabolites and growth hormone production was measured.

[1] = test system: healthy postmenopausal women; experiment: prophylaxis of postmenopausal bone loss; type: in vivo, human; settings: at or above 1.0 μg/day
Method: A clinical study is conducted with healthy postmenopausal women having ages between 55 and 60 years. The study involves up to 80 patients randomly divided into two treatment groups, and continues for 24 to 36 months. One treatment group receives a constant dosage of 1α,24(S)-dihydroxy vitamin D2 (u.i.d.; a dose level at or above 1.0 μg/day) and the other receives a matching placebo. The study is conducted as indicated in Example 2 above.

HL-60 promyelocytes = experiment: HL-60 cell differentiation assay; type: cell-based; settings: dose-response; acid esterase, NBT reduction, thymidine incorporation
Method: A dose-response study is conducted with 1α,24(S)-(OH)2 D2 in the HL-60 cell differentiation assay as described by DeLuca and Ostrom (DeLuca, H. F. and Ostrem, V. K., Prog. Clin. Biol. Res., vol. 259, pp. 41-55 (1988)). In this study, 1α,25-(OH)2 D3 is used as a positive control and appropriate solvents are used as negative controls. The following variables are evaluated: nonspecific acid esterase activity, nitroblue tetrazolium (NBT) reduction, and thymidine incorporation.

For `C=C1/C(=C\C=C2/CCC[C@]3(C)[C@@H]([C@H](C)/C=C/[C@@](C)(O)C(C)C)CC[C@@H]23)C[C@@H](O)C[C@@H]1O` [1α,24(S)-(OH)2 D2, 1α,24(S)-dihydroxy vitamin D2], the “activity in the transcriptional activation system compared with the 24(R) epimer” value (vitamin D receptor (VDR)) was “significantly more activity in this system than 1α,24(R)-(OH)2 D2”, the “losses in total body calcium, radial or spinal bone densities relative to baseline” value ([1]; 24 to 36 months) was “reduced losses in total body calcium, radial or spinal bone densities relative to baseline values” and the monitored safety parameters ([1]; long-term administration) was “confirm the safety of long-term 1α,24(S)-dihydroxy vitamin D2 administration”. The “differentiation of HL-60 promyelocytes to monocytes” value (HL-60 promyelocytes) was “potent activity in promoting differentiation of HL-60 promyelocytes to monocytes”.
